Laboratory results published in ChEMBL document CHEMBL4385649, “Cyclic heptapeptides from the soil-derived fungus Clonostachys rosea” (Bioorg Med Chem, 2019).
Active and inactive are the calls of the source. The calls are words filed in the database; no cut-off is given here.

Columns and labels:
Format in all cases: functional, cell-based
L5178Y [1] = assay: Cytotoxicity against mouse L5178Y cells assessed as reduction in cell viability at 10 uM by MTT assay
A2780 [2] = assay: Cytotoxicity against human A2780 cells assessed as reduction in cell viability at 10 uM by MTT assay
L5178Y [3] = assay: Cytotoxicity against mouse L5178Y cells assessed as reduction in cell viability by MTT assay
A2780 [4] = assay: Cytotoxicity against human A2780 cells assessed as reduction in cell viability by MTT assay

Row | SMILES | Activity (L5178Y [1]) | Activity (A2780 [2]) | IC50 (L5178Y [3]) [µM] | IC50 (A2780 [4]) [µM]
1 | O=C1OC(O)C=C1O (stereo not given) | inactive | inactive | – | –
2 | C[C@@H](O)[C@@]12SS[C@]3(C(=O)N1C)[C@@H](O)C1(C45c6ccccc6N[C@@H]4N4C(=O)[C@]6([C@@H](C)O)SS[C@]4(C(=O)N6C)[C@H]5O)c4ccccc4N[C@@H]1N3C2=O (stereo not given in full) | – | – | 0.1 | 3.5
3 | CC[C@H](C)[C@H]1NC(=O)[C@@H](CC(C)C)NC(=O)CNC(=O)CCNC(=O)[C@@H](Cc2c[nH]c3ccccc23)NC(=O)[C@H](C(C)C)NC(=O)[C@@H]([C@@H](C)CC)NC1=O | inactive | inactive | – | –
4 | CCC/C=C/CCC(=O)[C@]1(O)C(=O)N[C@@H](C)[C@@H]1O | inactive | inactive | – | –
5 | CS[C@@]1(Cc2c[nH]c3ccccc23)NC(=O)[C@@](SC)(C(C)O)NC1=O (stereo not given in full) | inactive | inactive | – | –
6 | CC(C)C[C@H]1NC(=O)CNC(=O)CCNC(=O)[C@@H](Cc2c[nH]c3ccccc23)NC(=O)[C@H](C(C)C)NC(=O)[C@H](C(C)C)NC(=O)[C@H](C(C)C)NC1=O | inactive | inactive | – | –
7 | CC[C@H](C)[C@H]1NC(=O)[C@@H](CC(C)C)NC(=O)CNC(=O)CCNC(=O)[C@@H](Cc2c[nH]c3ccccc23)NC(=O)[C@H](C(C)C)NC(=O)[C@H](C(C)C)NC1=O | – | – | 4.1 | –
8 | C/C=C/C=C\[C@@H](O)[C@H]1CCC(=O)O1 | inactive | inactive | – | –
